Results on 27 compounds are retold here after publication PMC6152123, “Sites for Dynamic Protein-Carbohydrate Interactions of O- and C-Linked Mannosides on the E. coli FimH Adhesin” (Molecules : A Journal of Synthetic Chemistry and Natural …, 2017).

Structures are written as SMILES. Like-named read-outs stand apart in the source and are kept apart here.

The target of one test is FimH. The settings on record: Tables 1-3; read-out: Kd ITC (converted); cited from earlier work.
Test [1] addresses T1, FimH lectin domain (Escherichia coli, UniProt P08191). The note with it: read-out: Kd SPR; solution affinity by SPR; cited from earlier work. (SPR reads the build-up and loss of mass on a sensor chip optically.)
Test [2] has as its target T1, FimH lectin domain. Nature of the test: biochemical. It counts as binding, E. coli strain J96.
The mark [3] stands for this setting: Kd SPR (nM), solution affinity by SPR competition, Tables 1-3.

T1 sequence (P08191 22-179 limits assumed): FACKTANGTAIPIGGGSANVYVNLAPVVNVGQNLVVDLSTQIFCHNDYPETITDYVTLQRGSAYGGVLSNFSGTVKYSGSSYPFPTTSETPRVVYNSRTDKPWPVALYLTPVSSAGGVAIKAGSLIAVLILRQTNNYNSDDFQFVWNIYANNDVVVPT

By Kd is commonly meant the free concentration of one partner at which half of the binding sites on the other are occupied at equilibrium, for simple one-to-one binding. In the case of `CCCCO[C@H]1O[C@H](CO)[C@@H](O)[C@H](O)[C@@H]1O` [Compound 4, reference compound], the Kd at FimH is 156 nM.

Consider `CCCCCCCCO[C@H]1O[C@H](CO)[C@@H](O)[C@H](O)[C@@H]1O` [Compound 5a, octyl α-D-mannopyranoside, reference compound], for which the Kd was 21 ± 0.2 nM on FimH lectin domain [1] and 2.15e-08 M on FimH lectin domain [2] (KD(M), Figure S19, fit of solution affinity model to inhibition curve). The “KA” value at FimH lectin domain [2] (Figure S19, fit of solution affinity model to inhibition curve) was determined as 46550590.5 M⁻¹. `OC[C@H]1O[C@H](OC/C=C/c2ccccc2)[C@@H](O)[C@@H](O)[C@@H]1O` [Compound 22] came in with a Kd on FimH lectin domain [2] (setting [3]) of 5.3e-08 ± 7.5e-09 M.

In the case of `OC[C@H]1O[C@H](OC/C=C/c2ccc(-c3ccccc3)cc2)[C@@H](O)[C@@H](O)[C@@H]1O` [Compound 23], the Kd on FimH lectin domain [2] (setting [3]) is 3e-09 ± 1.1e-09 M. Same read-out and setting: next, `OC[C@H]1O[C@H](OC/C=C/c2ccccc2-c2ccccc2)[C@@H](O)[C@@H](O)[C@@H]1O` [Compound 24]: 4.3e-09 ± 8e-10 M. For `OC[C@H]1O[C@H](OC/C=C/c2cccc3ccccc23)[C@@H](O)[C@@H](O)[C@@H]1O` [Compound 25], the Kd on FimH was 71 nM; at FimH lectin domain [2] (setting [3]), 5e-09 ± 1.4e-09 M.

In the case of `OC[C@H]1O[C@H](OCCCc2ccccc2)[C@@H](O)[C@@H](O)[C@@H]1O` [Compound 26], at FimH lectin domain [2] (setting [3]), binding was put at a Kd of 5.9e-08 ± 8.5e-09 M.

Regarding `OC[C@H]1O[C@H](OCCCc2ccc(-c3ccccc3)cc2)[C@@H](O)[C@@H](O)[C@@H]1O` [Compound 27], the results for the Kd at FimH and on FimH lectin domain [2] (setting [3]) were 1.5 nM and 1e-08 ± 2e-10 M, respectively.

Compound `OC[C@H]1O[C@H](OCCCc2ccccc2-c2ccccc2)[C@@H](O)[C@@H](O)[C@@H]1O` [Compound 28] returned a dissociation constant Kd on FimH lectin domain [2] (setting [3]) of 1.3e-08 ± 1.7e-09 M. The compound `OC[C@H]1O[C@H](OCCCc2cccc3ccccc23)[C@@H](O)[C@@H](O)[C@@H]1O` [Compound 29] came in with a Kd on FimH lectin domain [2] (setting [3]) of 2.2e-08 ± 3e-09 M. The same measure, in the same setting: next, `OC[C@H]1O[C@H](OCCCSCc2ccccc2)[C@@H](O)[C@@H](O)[C@@H]1O` [Compound 35]: 1.6e-08 ± 2.4e-09 M; `CCCCSCCCO[C@H]1O[C@H](CO)[C@@H](O)[C@H](O)[C@@H]1O` [Compound 36]: 2.2e-08 ± 2.7e-09 M. On the same count and under the same terms, with `CCCSCCCO[C@H]1O[C@H](CO)[C@@H](O)[C@H](O)[C@@H]1O` [Compound 37] the figure was 1.4e-08 ± 5e-09 M; with `CCSCCCO[C@H]1O[C@H](CO)[C@@H](O)[C@H](O)[C@@H]1O` [Compound 38], 1.4e-08 ± 7.6e-09 M; with `CC(C)SCCCO[C@H]1O[C@H](CO)[C@@H](O)[C@H](O)[C@@H]1O` [Compound 39], 1.1e-08 ± 6.1e-09 M. For `C#CCO[C@H]1O[C@H](CO)[C@@H](O)[C@H](O)[C@@H]1O` [Compound 41], the equilibrium dissociation constant (Kd) at FimH lectin domain [2] (setting [3]) turned out to be 4.9e-07 ± 5.5e-08 M. Consider `OC[C@H]1O[C@H](OCC#Cc2ccccc2)[C@@H](O)[C@@H](O)[C@@H]1O` [Compound 50], for which, at FimH lectin domain [2] (setting [3]), the equilibrium dissociation constant (Kd) was determined as 1.68e-07 ± 1.5e-08 M. The compound `OC[C@H]1O[C@H](OCC#Cc2ccc(-c3ccccc3)cc2)[C@@H](O)[C@@H](O)[C@@H]1O` [Compound 51] had a Kd at FimH lectin domain [2] (setting [3]) of 4.05e-07 ± 2.4e-08 M. Take `OC[C@H]1O[C@H](OCC#Cc2ccccc2-c2ccccc2)[C@@H](O)[C@@H](O)[C@@H]1O` [Compound 52]: the equilibrium dissociation constant (Kd) at FimH lectin domain [2] (setting [3]) is 2.25e-06 ± 2.91e-07 M.

Regarding `OC[C@H]1O[C@H](OCC#Cc2cccc3ccccc23)[C@@H](O)[C@@H](O)[C@@H]1O` [Compound 53], on FimH lectin domain [2] (setting [3]), the dissociation constant (Kd) stood at 1.2e-07 ± 1.8e-08 M.

The compound `OC[C@H]1O[C@H](OCC#Cc2cccs2)[C@@H](O)[C@@H](O)[C@@H]1O` [Compound 54] yielded a dissociation constant Kd at FimH lectin domain [2] (setting [3]) of 1.33e-07 ± 3.1e-08 M. The same measure, in the same setting: with `OC[C@H]1O[C@H](OCC#Cc2cccnc2)[C@@H](O)[C@@H](O)[C@@H]1O` [Compound 55] the figure was 8.3e-08 ± 5.6e-09 M; with `COc1ccc(C#CCO[C@H]2O[C@H](CO)[C@@H](O)[C@H](O)[C@@H]2O)cc1` [Compound 56], 5.3e-08 ± 2.3e-09 M. Still for that read-out and setting: next, `O=[N+]([O-])c1ccc(C#CCO[C@H]2O[C@H](CO)[C@@H](O)[C@H](O)[C@@H]2O)cc1` [Compound 57]: 8.16e-07 ± 1.05e-07 M. Take `OCC#Cc1ccc(O[C@H]2O[C@H](CO)[C@@H](O)[C@H](O)[C@@H]2O)cc1` [Compound 61]: the Kd on FimH lectin domain [2] (Kd SPR (nM), Table S2) amounted to 6.9e-09 ± 1e-09 M; at FimH lectin domain [2] (setting [3]) it was 3.69e-08 ± 3e-09 M. Consider `COCC#Cc1ccc(O[C@H]2O[C@H](CO)[C@@H](O)[C@H](O)[C@@H]2O)cc1` [Compound 62], for which the Kd on FimH is 59.5 ± 2.3 nM. The “Kd SPR (nM)” value at FimH lectin domain [2] (Table S2) is listed as “nf”; at FimH lectin domain [2] (solution affinity by SPR competition, Tables 1-3), “nf *”. In the case of `O=S(=O)(NCCO[C@H]1O[C@H](CO)[C@@H](O)[C@H](O)[C@@H]1O)c1ccccc1` [Compound 70], the dissociation constant Kd on FimH lectin domain [2] (Kd (nM), Table 4, SPR detection, sulfonamide and amide spacers) was determined as 1.46e-07 ± 2.6e-08 M.
